The record followed here is patent US5028609A, “Alkyl diamine derivatives” (Alkaloida Vegyeszeti Gyar, priority 1983, dated 1991).

As usually defined, the LD50 is the dose at which mortality reaches 50%. Higher therefore signals a less toxic substance.

A value given as a limit tells only on which side of the number the result lay.

Data set [1] in a line: acute intravenous toxicity, method of Litchfield and Wilcoxon. In kind it is in vivo. Conditions: mouse, in vivo, iv, mice. As to the method: The acute intravenous (i.v.) toxicity values of the testcompounds was determined by the method of Litchfield and Wilcoxon and as test-animals white mice of both sexes were used (J. of Pharmacol. 1949, 96, 99.).
In data set [2] the test system is aconitine arrhythmia on rats. Description: preventive aconitine arrhythmia test on rats. Particulars: for arrhythmia appearance time: ± S.E., 30 min monitoring; for responders at 4 mg/kg: read-out: positive cases, 4.0 mg/kg i.v., 2 min before aconitine. In kind it is in vivo, rats of Wistar strain. As to the method:
The antiarrhythmic activity of the compounds of the Formula I was compared in a preventive aconitine arrhythmia test on rats as follows:
rats of Wistar strain weighing 200 to 250 g. were narcotized i.p. with 1.25 g./kg. of urethane and their ECG was registered by a Hellige equipment by II standard limb head.
Arrhythmia was induced by an i.v. infusion of 30 /ug/kg. aconitine nitrate whereafter the ECG was continuously monitored for 30 minutes.
Those cases were considered positive, where within 30 minutes after the aconitine infusion not a single phase of the arrhythmia occurred.
In control animals pretreated i.v. with a 0.9% sodium chloride solution (0.1 ml./100 g.) (n=20) the arrhythmogenic activity of the aconitine nitrate appeared after 2.88±0.32 minutes.
Per cent values of the positive cases, average time of the appearance of the arrhythmia-when the induced arrhythmia appeared within 30 minutes and toxicity values are shown.

The subject of a further data set is arrhythmia in rats. Put plainly: arrhythmia test carried out in rats according to Zetler and Strubelt (ED125, ED150). In kind it is in vivo. Particulars: Rattus norvegicus, iv.
Where [3] appears, read: Rattus norvegicus, iv, 0.5 h, no arrhythmia within 30 min = positive.

Procedure for arrhythmia in rats: In cases of compounds having outstanding antiarrhythmic activity ED125 and ED150 values were calculated in arrhythmia test carried out in rats according to Zetler and Strubelt (Arzneim.-Forsch.) Drug.

On to `CC=Cc1ccc(OC(C)C(=O)NCCCNC(=O)C2=CC(C)(C)NC2(C)C)c(OC)c1` (centres unmarked) [I/22], for which the 50% lethal dose (LD50) in data set [1] was 14 mg/kg. Moreover, the arrhythmia appearance time in data set [2] (4.0 mg/kg i.v.) is reported as > 30 min. Also, in data set [2] (setting [3]), the responders at 4 mg/kg amounted to 100%. Moreover, in the data set on arrhythmia in rats, the ED125 came to 1.9 mg/kg and the ED150 came to 2.7 mg/kg.

In turn, `CC1(C)C=C(C(=O)NCCNCc2cccs2)C(C)(C)N1` [I/36] registered a median lethal dose (LD50) in data set [1] of 49 mg/kg. In addition, in data set [2] (4.0 mg/kg i.v.), the arrhythmia appearance time was 15.9 ± 0.3 min. The responders at 4 mg/kg in data set [2] (setting [3]) amounted to 70%. In the data set on arrhythmia in rats, this compound showed an ED125 of 4.5 mg/kg and an ED150 of 7.6 mg/kg.

The compound `CCN(CC)CCNC(=O)c1ccc(N)cc1` [procainamide, reference compound] came in with an LD50 in data set [1] of 141 mg/kg. Besides, the arrhythmia appearance time in data set [2] (8.0 mg/kg i.v.) is given as 9.5 ± 1.2 min. In addition, the responders at 8 mg/kg in data set [2] (Rattus norvegicus, iv, 0.5 h, read-out: positive cases, 8.0 mg/kg i.v., 2 min before aconitine, no arrhythmia within 30 min = positive) was found to be 30%. Also, in the data set on arrhythmia in rats, the ED125 amounted to 11 mg/kg and the ED150 came out at 14 mg/kg.

With `C=C[C@H]1C[N@@]2CC[C@H]1C[C@@H]2[C@@H](O)c1ccnc2ccc(OC)cc12` [quinidine, reference compound], the LD50 in data set [1] is 95 mg/kg. In data set [2] (9.5 mg/kg i.v.), this compound gave an arrhythmia appearance time of 10.0 ± 0.4 min. For the same compound, in data set [2] (Rattus norvegicus, iv, 0.5 h, read-out: positive cases, 9.5 mg/kg i.v., 2 min before aconitine, no arrhythmia within 30 min = positive), the responders at 9.5 mg/kg was 70%. For the same compound, in the data set with arrhythmia in rats, the ED125 is 7.8 mg/kg and the ED150 came to 10.8 mg/kg.
